# Key:
# [1] = target: T1, recombinant ATGL (Mus musculus, UniProt Q8BJ56); assay: TG hydrolase activity of E. coli lysates overexpressing recombinant strep-tagged ATGL and CGI-58, radiolabeled triolein substrate; assay type: biochemical
# T1 construct: Strep-tag; made in house; host or cells: E. coli (XL-1), vector pASK-IBA5+; crude lysate supernatant, not purified
# T1 sequence (Q8BJ56 1-486): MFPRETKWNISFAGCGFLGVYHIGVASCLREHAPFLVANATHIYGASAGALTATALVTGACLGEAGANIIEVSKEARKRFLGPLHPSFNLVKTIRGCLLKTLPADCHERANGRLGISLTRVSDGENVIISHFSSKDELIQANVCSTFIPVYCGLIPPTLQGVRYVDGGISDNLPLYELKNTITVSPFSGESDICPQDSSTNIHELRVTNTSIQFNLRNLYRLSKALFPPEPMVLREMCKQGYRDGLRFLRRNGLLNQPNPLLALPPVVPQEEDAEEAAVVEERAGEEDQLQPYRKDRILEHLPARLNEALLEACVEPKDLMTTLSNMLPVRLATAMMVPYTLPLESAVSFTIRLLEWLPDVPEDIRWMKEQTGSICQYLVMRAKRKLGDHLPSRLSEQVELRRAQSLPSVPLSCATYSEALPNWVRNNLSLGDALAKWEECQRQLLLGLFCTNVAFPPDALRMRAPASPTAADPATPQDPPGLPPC
# Protocol: • Figure 1. Structure of compounds 1 to 3 (reference) and compound 4 (atglistatin) and effect on ATGL activity. For determination of lipase activity, lysates of E. coli overexpressing recombinant strep-tagged ATGL and CGI-58 were incubated with a substrate containing radiolabeled [9,10-3H(N)]-triolein. Subsequently, FA were extracted and quantified by liquid scintillation counting. Lysates of cells expressing empty vector were set as blank. Inhibitors were solubilized in DMSO and added at the indicated concentrations. DMSO alone was used as negative control. (A) Structure and IC50 values of compounds 1-4. (B) Dose-dependent inhibition of ATGL in the presence of compound 3 and 4. […] (C) Lineweaver-Burk plots for kinetic analysis of ATGL inhibition. Experiments were performed at varying concentrations of substrate (0.05 - 3 mM) in presence and absence of compound 4 (Atglistatin). […] Data are presented as mean +/-S.D. of triplicate determinations. Data for compound 4 are representative for at least three independent experiments. • Figure 2. Selectivity of Atglistatin. Lipase activity of ATGL, HSL, lipoprotein lipase, and pancreatic lipase was determined using triolein as substrate. MGL activity was detected in the presence of rac-(1,3)-monooleoylglycerol as substrate. Inhibitors were solubilized in DMSO and added at the indicated concentrations. DMSO alone was used as negative control. (A) Dose-dependent inhibition of TG hydrolase activity in WAT lysates obtained from wild-type and ATGL-ko mice. (B) Inhibition of TG hydrolase activity in wild-type WAT lysates by Atglistatin (40 µM) and by the HSL inhibitor Hi 76-0079 (20 µM). (C) Effect of Atglistatin on murine MGL (purified from E. coli), and murine HSL (overexpressed in COS-7 lysates) activity. (D) Effect of Atglistatin on purified bovine LPL (Sigma) and pancreatic lipase (from porcine pancreas, Sigma). Data are presented as mean +/- S.D. of triplicate determinations and are representative for at least three independent experiments (p < 0.05 **, p < 0.01; ***, p < 0.001). • Figure 3 Inhibition of lipolysis in 3T3-L1 adipocytes and WAT organ cultures. (A,B) Differentiated 3T3 cells were preincubated with the indicated concentrations of Atglistatin. Thereafter, the medium was replaced by DMEM containing 2% BSA (fatty acid free), 10 µM forskolin, in the presence or absence of inhibitors. The release of FA (A) and glycerol (B) in the media was determined using commercial kits. Basal FA and glycerol release (not shown) was barely detectable under the applied conditions. Data are presented as mean +/- SD and are representative for 2 independent experiments. (C-F) Effect of Atglistatin on WAT basal (C, D) and forskolin-stimulated (E, F) lipolysis. Adipose tissue pieces (∼15 mg, n=5 for each concentration) of wild-type mice were cultured for 8 h in DMEM containing 2 % FA-free BSA and the indicated concentrations of Atglistatin. Subsequently, the medium was replaced by identical fresh medium and samples were collected after incubation for another hour in the presence or in the absence of 10 µM forskolin. Atglistatin was solubilized in DMSO and DMSO alone was used as negative control. Data are presented as mean +/- S.D. (*, p < 0.05 **, p < 0.01; ***, p < 0.001). • Figure 4 Inhibition of lipolysis in vivo. […] At the indicated timepoints blood was taken retroorbitally and plasma parameters were measured using commercial kits. […] 8 h after gavage blood was taken retroorbitally and plasma parameters were measured using commercial kits. […]
# [2] = system: AML-12 mouse hepatocytes; assay: MTT-based in vitro viability (toxicity) test; assay type: cell-based; details: at concentrations ≥100 µM
# Protocol: Toxicity test for Atglistatin in AML-12 mouse hepatocytes. For MTT-based in vitro viability assays, cells were seeded at an initial density of 1x10^4 cells per well in 96-well plates and cultured under standard conditions for twenty-four hours. The next day, cells were pretreated with different concentrations of Atglistatin dissolved in DMSO or Cisplatin dissolved in dimethylformamide (DMF) (Sigma-Aldrich) as positive control for two hours. Medium was replaced by an identical fresh medium and incubated again for the indicated timepoints. Thereafter cells were incubated for 3 hours with 100 µl Thiazolyl Blue Tetrazolium Bromide (MTT). The resulting violet formazan crystals were dissolved by adding 100 µl of MTT Solubilization Solution (0.1% NP-40, 4 mM HCl and anhydrous isopropanol). After complete dissolution of the formazan product, absorbance was measured at 595 nm and 690 nm. The values obtained at 690 nm were subtracted from the 595 nm measurements.
# [3] = system: WAT organ cultures; assay: Lipolysis of isolated WAT organ cultures; assay type: cell-based, C57BI6 mice; details: 8 h incubation
# Protocol: • Figure 1. Structure of compounds 1 to 3 (reference) and compound 4 (atglistatin) and effect on ATGL activity. For determination of lipase activity, lysates of E. coli overexpressing recombinant strep-tagged ATGL and CGI-58 were incubated with a substrate containing radiolabeled [9,10-3H(N)]-triolein. Subsequently, FA were extracted and quantified by liquid scintillation counting. Lysates of cells expressing empty vector were set as blank. Inhibitors were solubilized in DMSO and added at the indicated concentrations. DMSO alone was used as negative control. (A) Structure and IC50 values of compounds 1-4. (B) Dose-dependent inhibition of ATGL in the presence of compound 3 and 4. […] (C) Lineweaver-Burk plots for kinetic analysis of ATGL inhibition. Experiments were performed at varying concentrations of substrate (0.05 - 3 mM) in presence and absence of compound 4 (Atglistatin). […] Data are presented as mean +/-S.D. of triplicate determinations. Data for compound 4 are representative for at least three independent experiments. • Figure 2. Selectivity of Atglistatin. Lipase activity of ATGL, HSL, lipoprotein lipase, and pancreatic lipase was determined using triolein as substrate. MGL activity was detected in the presence of rac-(1,3)-monooleoylglycerol as substrate. Inhibitors were solubilized in DMSO and added at the indicated concentrations. DMSO alone was used as negative control. (A) Dose-dependent inhibition of TG hydrolase activity in WAT lysates obtained from wild-type and ATGL-ko mice. (B) Inhibition of TG hydrolase activity in wild-type WAT lysates by Atglistatin (40 µM) and by the HSL inhibitor Hi 76-0079 (20 µM). (C) Effect of Atglistatin on murine MGL (purified from E. coli), and murine HSL (overexpressed in COS-7 lysates) activity. […] The release of FA (A) and glycerol (B) in the media was determined using commercial kits. […] At the indicated timepoints blood was taken retroorbitally and plasma parameters were measured using commercial kits. […] 8 h after gavage blood was taken retroorbitally and plasma parameters were measured using commercial kits. […]
compound,measurement,setting,value
"CN(C)C(=O)Nc1cccc(-c2ccc(N(C)C)cc2)c1 [Atglistatin, atglistatin]",Ki,[1],0.5 ± 0.2 µM
same,mechanism of ATGL inhibition,"[1]; increase in apparent Km, unchanged Vmax, substrate 0.05 - 3 mM",competitive inhibitor
same,IC50,[1]; inhibition of the activity of recombinant ATGL,0.7 µM
same,cell viability (cytotoxicity assays),[2],only a very moderate decrease in cell viability
same,basal lipolysis,[3]; dose dependent (0-50 µM),reduced basal lipolysis
same,reduction of forskolin-stimulated FA release,"[3]; up to, 10 µM forskolin",up to 72%
same,reduction of forskolin-stimulated glycerol release,"[3]; up to, 10 µM forskolin",≤ 66%

# — patent EP2948433B1, “ATGLISTATIN AS LIPASE INHIBITOR” (Technische Universität Graz, priority 2013, dated 2014)
